Where two headings read alike, the source gives them in different places.
What was measured:
[1] = target: T1, HCV NS3/4A 1b protease D168A (Hepatitis C virus genotype 1b, UniProt Q9WMX2, D1194A); assay: HCV protease FRET assay (IC50_APP), Example 16; assay type: biochemical
T1 construct: 10× stocks of NS3/4A protease enzyme from Bioenza (Mountain View, Calif.); purchased Bioenza (Mountain View, Calif.)
Description: (§1) The following protocol was used to generate “apparent” IC50 (IC50 APP) values as depicted in Table 6, below. […] 5 μL of each enzyme were added to Corning (#3575) 384-well, black, microtiter plates (Corning, N.Y.) after spotting a 0.5 μL volume of 50% DMSO and serially diluted compounds prepared in 50% DMSO. Protease reactions were immediately started after enzyme addition with the addition of 45 μL of the FRET substrate and monitored for 60-90 minutes at λex485/λem520 in a Synergy^4 plate reader from BioTek (Winooski, Vt.). At the conclusion of each assay, progress curves from each well were examined for linear reaction kinetics and fit statistics (R^2, 95% confidence intervals, absolute sum of squares).
(§2) The compound numbers correspond to the compound numbers in Table 3. […] ;

[2] = target: T2, HCV NS3/4A 1b protease R155K (Hepatitis C virus genotype 1b, UniProt Q9WMX2, R1181K); assay: HCV protease FRET assay (IC50_APP), Example 16; assay type: biochemical; conditions: reaction started immediately after enzyme addition, read-out: Inhibition (apparent IC50, IC50_APP), HCV R155K
T2 construct: 10× stocks of NS3/4A protease enzyme from Bioenza (Mountain View, Calif.); purchased Bioenza (Mountain View, Calif.)
Description: as §1, §2

[3] = target: T3, HCV NS3/4A 1b protease wild type (Hepatitis C virus genotype 1b, UniProt Q9WMX2); assay: HCV protease FRET assay (IC50_APP), Example 16; assay type: biochemical
T3 construct: 10× stocks of NS3/4A protease enzyme from Bioenza (Mountain View, Calif.); purchased Bioenza (Mountain View, Calif.)
Description: as §1, §2

[4] = test system: HCV RNA replicon in cell line ET (luc-ubi-neo/ET), human Huh7 hepatoma; assay: Replicon luciferase assay, Example 26; assay type: cell-based; conditions: Hepatitis C virus, Huh-7, assay of Example 26, 72 hr; for EC50: read-out: Inhibition, Replicon, EC50 value; for EC90: read-out: Inhibition, Replicon, EC90 value
Description: The compounds were assayed to evaluate the antiviral activity and cytotoxicity of compounds using replicon-derived luciferase activity. This assay used the cell line ET (luc-ubi-neo/ET), which is a human Huh7 hepatoma cell line that contains an HCV RNA replicon with a stable luciferase (Luc) reporter and cell culture-adaptive mutations. The ET cell line was grown in a 5% CO2 incubator at 37° C. in Dulbecco's modified essential media (DMEM) supplemented with 2 mM L-glutamine, nonessential amino acids, 100 U of penicillin/ml, 100 μg of streptomycin/mL, and 10% fetal bovine serum. G418 (Geneticin; Invitrogen) was added at a final concentration of 400 ug//mL.
All cell culture reagents were obtained from Invitrogen (Carlsbad). Cells were trypsinized (1% trypsin:EDTA) and plated out at 5×10^3 cells/well in white 96-well assay plates (Costar) dedicated to cell number (cytotoxicity) or antiviral activity assessments. Test compounds were added at six 3-fold concentrations each and the assay was run in DMEM, 5% FBS, 1% pen-strep, 1% glutamine, 1% non essential amino acid. Human interferon alpha-2b (PBL Biolabs, New Brunswick, N.J.) was included in each run as a positive control compound. Cells were processed 72 hr post test compound addition when the cells were still subconfluent. Antiviral activity was measured by analyzing replicon-derived luciferase activity using the Steady-Glo Luciferase Assay System (Promega, Madison, Wis.) according to manufacturer's instruction. The number of cells in each well was determined by Cell Titer Blue Assay (Promega). Compound profile was derived by calculating applicable EC50 (effective concentration inhibiting virus replication by 50%), EC90 (effective concentration inhibiting virus replication by 90%), IC50 (concentration decreasing cell viability by 50%) and SI50 (selective index: […]) values.

Structure (SMILES)	IC50 [1] [µM]	IC50 [2] [µM]	IC50 [3] [µM]	EC50 [4] [µM]	EC90 [4] [µM]	IC50 ([1]; read-out: Inhibition (apparent IC50, IC50_APP), HCV D168A, FRET, reaction started immediately after enzyme addition) [µM]	IC50 ([3]; read-out: Inhibition (apparent IC50, IC50_APP), WT, FRET, reaction started immediately after enzyme addition) [µM]
C=C[C@@H]1C[C@]1(NC(=O)[C@@H]1CC(OC(=O)N2Cc3cccc(F)c3C2)CN1C(=O)[C@H](CCC(=O)C#CC(C)(C)C)NC(=O)OC(C)(C)C)C(=O)NS(=O)(=O)C1CC1 (stereo partly shown) [Compound I-29]	< 0.01	< 0.01	< 0.01	0.01 to 0.1	–	–	–
CC[C@@H]1C[C@]1(NC(=O)[C@@H]1CC(OC(=O)N2Cc3cccc(F)c3C2)CN1C(=O)[C@H](CCC(=O)C=C(C)C)NC(=O)OC(C)(C)C)C(=O)NS(=O)(=O)C1CC1 (stereo partly shown) [Compound I-33]	1 to 10	0.1 to 1	< 0.01	–	–	–	–
C=CC(=O)N1CCC/C=C\[C@@H]2C[C@@]2(C(=O)NS(=O)(=O)C2CC2)NC(=O)[C@@H]2CC(OC(=O)N3Cc4cccc(F)c4C3)CN2C(=O)[C@@H](NC(=O)OC(C)(C)C)C1 (stereo partly drawn) [Compound I-35, (1aR,3aS,5R,9S,16aS,Z)-11-acryloyl-9-(tert-butoxycarbonylamino)-1a-(cyclopropylsulfonylcarbamoyl)-3,8-dioxo-1,1a,2,3,3a,4,5,6,8,9,10,11,12,13,14,16a-hexadecahydrocyclopropa[n]pyrrolo[2,1-c][1,4,8]triazacyclopentadecin-5-yl-4-fluoroisoindoline-2-carboxylate]	0.01 to 0.1	0.01 to 0.1	< 0.01	0.1 to 1	0.1 to 1	–	–
C=CC(=O)N1CC/C=C\[C@@H]2C[C@@]2(C(=O)NS(=O)(=O)C2CC2)NC(=O)[C@@H]2CC(OC(=O)N3Cc4cccc(F)c4C3)CN2C(=O)[C@@H](NC(=O)OC(C)(C)C)CC1 (stereo partly shown) [Compound I-36]	< 0.01	< 0.01	< 0.01	0.1 to 1	0.1 to 1	–	–
C=CC(=O)N1C/C=C\[C@@H]2C[C@@]2(C(=O)NS(=O)(=O)C2CC2)NC(=O)[C@@H]2CC(OC(=O)N3Cc4cccc(F)c4C3)CN2C(=O)[C@@H](NC(=O)OC(C)(C)C)CCC1 (stereo partly shown) [Compound I-37]	0.01 to 0.1	0.01 to 0.1	< 0.01	0.1 to 1	1 to 10	–	–
C/C=C(\C)C(=O)CC[C@H](NC(=O)OC(C)(C)C)C(=O)N1CC(OC(=O)N2Cc3cccc(F)c3C2)C[C@H]1C(=O)N[C@]1(C(=O)NS(=O)(=O)C2CC2)C[C@H]1CC (stereo partly shown) [Compound I-39]	0.1 to 1	0.01 to 0.1	< 0.01	–	–	–	–
C=CC(=O)NC[C@@H]1NC(=O)OCC(C)(C)CC/C=C/c2cccc3c2CN(C3)C(=O)O[C@@H]2C[C@@H](C(=O)N[C@]3(C(=O)NS(=O)(=O)C4CC4)C[C@H]3C=C)N(C2)C1=O [Compound I-40]	0.01 to 0.1	< 0.01	< 0.01	–	–	–	–
C=CC(=O)NC[C@@H]1NC(=O)OCC(C)(C)CCCCc2cccc3c2CN(C3)C(=O)O[C@@H]2C[C@@H](C(=O)N[C@]3(C(=O)NS(=O)(=O)C4CC4)C[C@H]3C=C)N(C2)C1=O [Compound I-42]	0.01 to 0.1	0.01 to 0.1	< 0.01	–	–	–	–
CCCCC(NC(=O)[C@@H]1C[C@@H](OC(=O)N2Cc3cccc(F)c3C2)CN1C(=O)[C@H](CCC(=O)C=C(C)C)NC(=O)OC(C)(C)C)C(=O)NS(=O)(=O)C1CC1 (stereo partly drawn) [Compound I-44, (3R,5S)-1-((S)-2-(tert-butoxycarbonylamino)-7-methyl-5-oxooct-6-enoyl)-5-(1-(cyclopropanesulfonamido)-1-oxohexan-2-ylcarbamoyl)pyrrolidin-3-yl 4-fluoroisoindoline-2-carboxylate]	1 to 10	1 to 10	< 0.01	–	–	–	–
CC(C)(C)OC(=O)N[C@H]1CN(S(=O)(=O)c2ccccc2[N+](=O)[O-])CCC/C=C\[C@@H]2C[C@@]2(C(=O)NS(=O)(=O)C2CC2)NC(=O)[C@@H]2CC(OC(=O)N3Cc4cccc(F)c4C3)CN2C1=O (stereo partly shown) [Compound I-45]	< 0.01	< 0.01	< 0.01	0.01 to 0.1	0.1 to 1	–	–
C=CC(=O)N1CC(C(NC(C)=O)C(=O)N2CC(OC(=O)N3Cc4cccc(F)c4C3)C[C@H]2C(=O)N[C@]2(C(=O)NS(=O)(=O)C3CC3)C[C@H]2C=C)C1 (stereo partly shown) [Compound I-46]	0.01 to 0.1	< 0.01	< 0.01	1 to 10	1 to 10	–	–
CC(C)(C)OC(=O)N[C@H]1CN(C(=O)CCl)CCC/C=C\[C@@H]2C[C@@]2(C(=O)N(C(=O)CCl)S(=O)(=O)C2CC2)NC(=O)[C@@H]2CC(OC(=O)N3Cc4cccc(F)c4C3)CN2C1=O (stereo partly shown) [Compound I-48]	0.1 to 1	0.1 to 1	0.01 to 0.1	–	–	–	–
C=C[C@@H]1C[C@]1(NC(=O)[C@@H]1CC(OC(=O)N2Cc3cccc(F)c3C2)CN1C(=O)[C@@H](C)Nc1ccnc(Cl)n1)C(=O)NS(=O)(=O)C1CC1 (stereo partly shown) [Compound I-49]	1 to 10	1 to 10	0.1 to 1	1 to 10	1 to 10	–	–
C=C[C@@H]1C[C@]1(NC(=O)[C@@H]1CC(OC(=O)N2Cc3cccc(F)c3C2)CN1C(=O)C(CN(C)C(=O)/C=C/CN(C)C)NC(=O)OC(C)(C)C)C(=O)NS(=O)(=O)C1CC1 (stereo partly shown) [Compound I-50]	1 to 10	1 to 10	0.01 to 0.1	1 to 10	1 to 10	–	–
C=CC(=O)N1CC(C(NC(=O)OC2CCCC2)C(=O)N2CC(OC(=O)N3Cc4cccc(F)c4C3)C[C@H]2C(=O)N[C@]2(C(=O)NS(=O)(=O)C3CC3)C[C@H]2C=C)C1 (stereo partly shown) [Compound I-51]	0.01 to 0.1	0.01 to 0.1	< 0.01	0.1 to 1	1 to 10	–	–
C=CC(=O)N(C)CC(NC(=O)C12CCC(C(=O)OC)(CC1)CC2)C(=O)N1CC(OC(=O)N2Cc3cccc(F)c3C2)C[C@H]1C(=O)N[C@]1(C(=O)NS(=O)(=O)C2CC2)C[C@H]1C=C (stereo partly shown) [Compound I-52]	1 to 10	–	0.01 to 0.1	1 to 10	1 to 10	–	–
CC(C)(C)OC(=O)N[C@H]1CCN(S(=O)(=O)c2ccccc2[N+](=O)[O-])CC/C=C\[C@@H]2C[C@@]2(C(=O)NS(=O)(=O)C2CC2)NC(=O)[C@@H]2CC(OC(=O)N3Cc4cccc(F)c4C3)CN2C1=O (stereo partly shown) [Compound I-53]	–	< 0.01	–	0.01 to 0.1	0.1 to 1	< 0.01	< 0.01
CC[C@@H]1C[C@]1(NC(=O)[C@@H]1C[C@@H](OC(=O)N2Cc3cccc(F)c3C2)CN1C(=O)[C@H](CC(=O)C=C(C)C)NC(=O)OC(C)(C)C)C(=O)NS(=O)(=O)C1CC1 [Compound I-60]	–	0.1 to 1	< 0.01	–	–	–	–
CC(C)(C)OC(=O)N[C@H]1COC(=O)/C=C/C=C\[C@@H]2C[C@@]2(C(=O)NS(=O)(=O)C2CC2)NC(=O)[C@@H]2C[C@@H](OC(=O)N3Cc4cccc(F)c4C3)CN2C1=O [Compound I-65]	0.1 to 1	0.01 to 0.1	< 0.01	–	–	–	–
C/C=C/C(=O)OC1CC/C=C\[C@@H]2C[C@@]2(C(=O)NS(=O)(=O)C2CC2)NC(=O)[C@@H]2C[C@@H](OC(=O)N3Cc4cccc(F)c4C3)CN2C(=O)[C@@H](NC(=O)OC(C)(C)C)CC1 (stereo partly shown) [Compound I-66]	< 0.01	< 0.01	< 0.01	–	–	–	–
C=C[C@@H]1C[C@]1(NC(=O)[C@@H]1C[C@@H](OC(=O)N2Cc3cccc(F)c3C2)CN1C(=O)[C@H](COC(=O)/C=C/C=C/C)NC(=O)OC(C)(C)C)C(=O)NS(=O)(=O)C1CC1 [Compound I-67]	0.1 to 1	0.1 to 1	< 0.01	–	–	–	–
C=C[C@@H]1C[C@]1(NC(=O)[C@@H]1CC(OC(=O)N2Cc3cccc(F)c3C2)CN1C(=O)[C@H](CC(=O)/C(C)=C/C)NC(=O)OC(C)(C)C)C(=O)NS(=O)(=O)C1CC1 (stereo partly shown) [Compound I-70]	0.1 to 1	0.1 to 1	< 0.01	–	–	–	–
C=C[C@@H]1C[C@]1(NC(=O)[C@@H]1CC(OC(=O)N2Cc3cccc(F)c3C2)CN1C(=O)[C@H](CC/C=C/C(=O)OC)NC(=O)OC(C)(C)C)C(=O)NS(=O)(=O)C1CC1 (stereo partly shown) [Compound I-72]	0.1 to 1	0.01 to 0.1	< 0.01	–	–	–	–

— patent publication US8293705B2, “HCV protease inhibitors and uses thereof” (Avila Therapeutics, Inc., priority 2007, dated 2012)
